Test results taken from patent US20230242956A1, “POLYPHOSPHATE KINASE MUTANT, ENGINEERED STRAIN AND APPLICATION THEREOF” (ZHEJIANG UNIVERSITY OF TECHNOLOGY, priority 2022, published 2023).

Target: T1, Cytophaga hutchinsonii polyphosphate kinase (ChPPK) mutant A79G/S106C/I108F/L285P (parent SEQ ID NO: 2) (Cytophaga hutchinsonii, UniProt A0A6N4SMB5, A79G/I108F/L285P/S106C)
T1 sequence (A0A6N4SMB5 with tags, fused parts or gaps A79G/S106C/I108F/L285P): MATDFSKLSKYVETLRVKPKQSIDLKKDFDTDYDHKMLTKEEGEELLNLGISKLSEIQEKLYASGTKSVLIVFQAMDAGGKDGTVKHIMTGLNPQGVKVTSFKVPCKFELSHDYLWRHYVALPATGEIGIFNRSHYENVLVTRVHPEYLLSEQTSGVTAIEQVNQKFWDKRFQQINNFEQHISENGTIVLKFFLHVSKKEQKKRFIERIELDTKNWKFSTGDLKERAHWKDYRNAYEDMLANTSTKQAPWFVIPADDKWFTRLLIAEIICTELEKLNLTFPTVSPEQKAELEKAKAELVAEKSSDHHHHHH
Experiment: Kinetic parameters of mutant ChPPK/A79G/S106C/I108F/L285P (pure enzyme, pseudo-one-substrate kinetic model, ATP by HPLC)
Assay type: biochemical
Details: mutant versus wild-type; substrate AMP or PPA
Description: (2) Pure enzyme: 5 mL of the crude enzyme solution was diluted with 40 mL of potassium phosphate buffer (20 mM, pH 7.2), and then applied to a HisTrap HP purification column of GE Healthcare (10 mL column, pre-washed with a pH 7.2, 20 mM potassium phosphate buffer containing 500 mM NaCl). The resulting purification column was eluted with 100 mL of washing buffer (a pH7.2, 20 mM potassium phosphate buffer containing 500 mM sodium chloride and 50 mM imidazole) at a rate of 0.5 mL/min to remove the absorbed protein impurities, and then eluted with an elution buffer (a pH7.2, 20 mM potassium phosphate buffer containing 500 mM sodium chloride and 50 mM imidazole) at a speed of 0.5 mL/min to collect an elution solution containing the target protein. Then the elution solution containing the target protein was dialyzed in a dialysis bag (the MWCO of the dialysis bag was 14 KDa) with a pH7.2 of 20 mM potassium phosphate buffer for 48h, and the retentate was taken as pure enzyme. The concentration of the pure enzyme was determined by Beyotime BCA Protein Assay Kit(P0012), and the amount of the pure enzyme used in the following examples was calculated by protein content.
0.4 mg of the crude enzyme solution prepared by the method in Example 2 or 0.05 mg of the pure enzyme, polyphosphoric acid (PPA) at a final concentration of 1.6 g/L, adenosine phosphate (AMP) at a final concentration of 2.25 mM, and MgCl2 at a final concentration of 10 mM were added to 10 mL of 50 mM potassium phosphate buffer (pH 7.5). The reaction solution was incubated at 37° C. for 5 min, and then 10 mL of 0.2 M phosphoric acid solution was added to terminate the reaction. The ATP content in the solution was determined by HPLC method. […]
The wild-type Ecoli.BL21(DE3)-ChPPK constructed by the method of Example 1 and the engineered strain Ecoli.BL21(DE3)-ChPPK/A79G/S106C/I108F/L285P constructed by the method of Example 6 were used to prepare pure enzymes by the method of Example 2. Km and Kcat were calculated by pseudo-one-substrate kinetic model. […]

Nc1ncnc2c1ncn2[C@@H]1O[C@H](COP(=O)(O)O)[C@@H](O)[C@H]1O [AMP, adenosine phosphate]
Km, wild-type compared with mutant (in words): similar | catalytic efficiency (kcat/Km) of the mutant, fold higher than wild-type ChPPK: 16 fold | turnover number (kcat value), mutant compared with wild-type (in words): increased
